Assay results taken from paper PMC9964244, “Effects of Dimerization, Dendrimerization, and Chirality in p-BthTX-I Peptide Analogs on the Antibacterial Activity and Enzymatic Inhibition of the SARS-CoV-2 PL^pro Protein” (Pharmaceutics, 2023).
Several values for one entry are separate records, joined by “and”; a condition that tells them apart may be missing. Equal values may be shown once. Read-outs that look alike come from different tables or passages of the source. Bridge positions count the residues as written; N and C are the ends. Ends that are not written are not given here. Peptide text beside a SMILES is read from it. I, II: the chains in the order shown.

Tests used:
SARS-CoV-2 PL^pro [1] = target: T1, SARS-CoV-2 PL^pro (Severe acute respiratory syndrome coronavirus 2, UniProt P0DTD1); conditions: PL^pro from SARS-CoV-2, ref 19 (Freire et al., 2021), cited from earlier work
T1 construct: made in house
Method: Table 3 PL^pro activity by peptide analogs of p-BThTX-I at the concentration of 10 μM and IC50 values. Representative concentration–response inhibition curves against PL^pro from SARS-CoV-2 are presented in the Supplementary Material (Figure S7). | column: Inhibition (%) at 10 µM; IC50 μM

E. coli ATCC 25922 = assay: MIC/MBC, broth microdilution and subculture on CA-MH agar; assay type: cell-based; parameters: key to Act (antibacterial activity): Bc, bactericidal; Bs, bacteriostatic; conditions: for MIC: broth microdilution; for MIC / MBC: triplicate, mode; for MBC: subculture on CA-MH agar, 37 °C, 24 h
Method: (§1) Bacterial isolates from the American Type Culture Collection (ATCC) were obtained from the Collection of Reference Bacteria on Health Surveillance, Oswaldo Cruz Foundation (FIOCRUZ) after phenotypic and molecular quality control and were registered at SISGEN under the number ADB556B. The minimum inhibitory concentration (MIC) was determined as previously described by Santos-Filho et al., 2021 [17], using the broth microdilution method. The MIC was the lowest concentration that inhibited microbial growth. […] MBC was defined as the lowest peptide concentration with no visible growth on the plate. […] The assay was performed in triplicate, and the values represent the mode of the obtained results.
(§2) Thus, to assess the relevance of the antimicrobial effect of p-Bth analogs, their Minimum Inhibitory Concentration (MIC) and Minimum Bactericidal Concentration (MBC) were analyzed against relevant bacteria. The evaluated strains were the Gram-positives: S. aureus ATCC 25923, S. epidermidis ATCC 35984, E. faecalis ATCC 29212, and E. faecium ATCC […] (Table 1); and the Gram-negatives: K. pneumoniae ATCC 700603, E. coli ATCC 25922, A. baumannii ATCC 19606, and P. aeruginosa ATCC 27853 (Table 2).

[2] = test system: S. epidermidis ATCC 35984; assay: as above; assay type: cell-based; parameters: key to Act (antibacterial activity): Bc, bactericidal; Bs, bacteriostatic; conditions: for MIC: broth microdilution; for MIC / MBC: triplicate, mode; for MBC: subculture on CA-MH agar, 37 °C, 24 h
Method: as §1, §2

E. faecalis ATCC 29212 = assay: as above; assay type: cell-based; parameters: key to Act (antibacterial activity): Bc, bactericidal; Bs, bacteriostatic; conditions: for MIC: broth microdilution; for MIC / MBC: triplicate, mode; for MBC: subculture on CA-MH agar, 37 °C, 24 h
Method: as §1, §2

SARS-CoV-2 = conditions: Vero cells; cited from earlier work
Excerpt: In December 2019, the first case of viral infection with a new coronavirus was reported in China, which was later named severe acute respiratory syndrome coronavirus 2 (SARS-CoV-2), and the disease caused by this was named coronavirus-2019 or COVID-19 by the WHO. This disease has taken on great proportions, causing a pandemic scenario and great global concern. Even with the improvements in disease control, there is still a need for new, specific antiviral therapeutic options. As antimicrobial peptides also have antiviral action, the L-dimer, D-dimer and L-tetramer, in addition to ...

S. aureus ATCC 25923 = assay: MIC/MBC, broth microdilution and subculture on CA-MH agar; assay type: cell-based, Staphylococcus aureus; parameters: key to Act (antibacterial activity): Bc, bactericidal; Bs, bacteriostatic; conditions: for MIC: broth microdilution; for MIC / MBC: triplicate, mode; for MBC: subculture on CA-MH agar, 37 °C, 24 h
Method: as §1, §2

[3] = test system: K. pneumoniae ATCC 700603; assay: as above; assay type: cell-based, Klebsiella pneumoniae; parameters: key to Act (antibacterial activity): Bc, bactericidal; Bs, bacteriostatic; conditions: for MIC: broth microdilution; for MIC / MBC: triplicate, mode; for MBC: subculture on CA-MH agar, 37 °C, 24 h
Method: as §1, §2

E. faecium ATCC 700221 = assay: as above; assay type: cell-based, Enterococcus faecium; parameters: key to Act (antibacterial activity): Bc, bactericidal; Bs, bacteriostatic; conditions: for MBC: subculture on CA-MH agar, 37 °C, 24 h
Method: as §1, §2

P. aeruginosa ATCC 27853 = assay: as above; assay type: cell-based, Pseudomonas aeruginosa; parameters: key to Act (antibacterial activity): Bc, bactericidal; Bs, bacteriostatic; conditions: for MBC: subculture on CA-MH agar, 37 °C, 24 h
Method: as §1, §2

A. baumannii ATCC 19606 = assay: as above; assay type: cell-based, Acinetobacter baumannii; parameters: key to Act (antibacterial activity): Bc, bactericidal; Bs, bacteriostatic; conditions: for MIC: broth microdilution; for MIC / MBC: triplicate, mode; for MBC: subculture on CA-MH agar, 37 °C, 24 h
Method: as §1, §2

SARS-CoV-2 PL^pro [4] = target: T1, SARS-CoV-2 PL^pro; assay: PL^pro enzymatic inhibition assay; assay type: biochemical; conditions: PL^pro from SARS-CoV-2
[5] = MBC/MIC ratio >4 suggests bacteriostatic
[6] = broth microdilution, triplicate, mode

| Compound | MIC (E. coli ATCC 25922) | MBC (E. coli ATCC 25922) | MIC [2] | MBC [2] | MIC (E. faecalis ATCC 29212) | MBC (E. faecalis ATCC 29212) | MIC (S. aureus ATCC 25923) | MBC (S. aureus ATCC 25923) | MIC [3] | MBC [3] | MBC (E. faecium ATCC 700221; triplicate, mode) | MBC (P. aeruginosa ATCC 27853; triplicate, mode) | MIC (A. baumannii ATCC 19606) | MBC (A. baumannii ATCC 19606) | also measured |
| --- | --- | --- | --- | --- | --- | --- | --- | --- | --- | --- | --- | --- | --- | --- | --- |
| I: KKYRYHLKPFKK-NH2 / II: KKYRYHLKPFK / III: KKYRYHLKPF / IV: KKYRYHLKPF (amide I:11-IV:C, I:12-II:C, II:11-III:C) [L-tetramer] | 32 μg/mL and 5 µM | >128 µg/mL | 16 µg/mL | 32 µg/mL | 10 µM and 64 μg/mL | 128 µg/mL | 64 μg/mL and 10 µM | 256 µg/mL | 32 μg/mL and 5 µM | >128 µg/mL | 32 µg/mL | 64 µg/mL | 5 µM and 32 μg/mL | 64 µg/mL | Inhibition (%) at 10 µM (SARS-CoV-2 PL^pro [1]; peptide 10 µM): 98.40 ± 0.00%; IC50 (SARS-CoV-2 PL^pro [1]): 1.4 ± 0.02 µM; Act (antibacterial activity) (E. coli ATCC 25922; [5]): Bs; Act (antibacterial activity) [2, 5]: Bc; Act (antibacterial activity) (E. faecalis ATCC 29212; [5]): Bc; percentage inhibition of SARS-CoV-2 infection (SARS-CoV-2): 54%; Act (antibacterial activity) (S. aureus ATCC 25923; [5]): Bc; Act (antibacterial activity) [3, 5]: Bs; Act (antibacterial activity) (E. faecium ATCC 700221; [5]): Bc; Act (antibacterial activity) (P. aeruginosa ATCC 27853; [5]): Bc; MIC (P. aeruginosa ATCC 27853; [6]): 32 μg/mL and 5 µM; Act (antibacterial activity) (A. baumannii ATCC 19606; [5]): Bc |
| CC(C)C[C@H](NC(=O)[C@H](Cc1c[nH]cn1)NC(=O)[C@H](Cc1ccc(O)cc1)NC(=O)[C@H](CCCNC(=N)N)NC(=O)[C@H](Cc1ccc(O)cc1)NC(=O)[C@H](CCCCN)NC(=O)[C@@H](N)CCCCN)C(=O)N[C@@H](CCCCN)C(=O)N1CCC[C@H]1C(=O)N[C@@H](Cc1ccccc1)C(N)=O [L-monomer] (H-KKYRYHLKPF-NH2) | >371 µM | >512 µg/mL | >371 µM | >512 µg/mL | >371 µM | >512 µg/mL | >371 µM | >512 µg/mL | >371 µM | >512 µg/mL | >512 µg/mL | >512 µg/mL | >371 µM | >512 µg/mL | inhibition at 10 µM (SARS-CoV-2 PL^pro [4]; peptide 10 µM): 93.3%; IC50 (SARS-CoV-2 PL^pro [4]; two independent experiments): 2.1 ± 0.1 µM; MIC (E. faecium ATCC 700221; [6]): >371 µM |
